These results are taken from patent US10323022B2, “Pyrrolidinyl urea, pyrrolidinyl thiourea and pyrrolidinyl guanidine compounds as TrkA kinase inhibitors” (Array BioPharma Inc., priority 2011, dated 2019).

The target of the assay is TrkA (Homo sapiens (Human), UniProt P04629). The assay is described as follows: TrkA Omnia Assay. The format is biochemical. The following applies: averaged IC50; 20 nM enzyme, 500 μM ATP, 10 μM peptide substrate. Summed up: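 Continuous fluorescent kinase read-out (ex 360 nm, em 485 nm) over 70 min, with initial rates fitted to 4- or 5-parameter logistic curves for IC50. Final conditions: 500 μM ATP, 10 μM Omnia Tyr Peptide #4, 20 nM TrkA, MOPS pH 7.5 buffer with MgCl2 and Triton X-100; enzyme and compound preincubated 10 min at ambient temperature.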

Counter-ions that a name gives are not always drawn. Some results are limits rather than exact numbers.

Chain of TrkA (P04629 33-796): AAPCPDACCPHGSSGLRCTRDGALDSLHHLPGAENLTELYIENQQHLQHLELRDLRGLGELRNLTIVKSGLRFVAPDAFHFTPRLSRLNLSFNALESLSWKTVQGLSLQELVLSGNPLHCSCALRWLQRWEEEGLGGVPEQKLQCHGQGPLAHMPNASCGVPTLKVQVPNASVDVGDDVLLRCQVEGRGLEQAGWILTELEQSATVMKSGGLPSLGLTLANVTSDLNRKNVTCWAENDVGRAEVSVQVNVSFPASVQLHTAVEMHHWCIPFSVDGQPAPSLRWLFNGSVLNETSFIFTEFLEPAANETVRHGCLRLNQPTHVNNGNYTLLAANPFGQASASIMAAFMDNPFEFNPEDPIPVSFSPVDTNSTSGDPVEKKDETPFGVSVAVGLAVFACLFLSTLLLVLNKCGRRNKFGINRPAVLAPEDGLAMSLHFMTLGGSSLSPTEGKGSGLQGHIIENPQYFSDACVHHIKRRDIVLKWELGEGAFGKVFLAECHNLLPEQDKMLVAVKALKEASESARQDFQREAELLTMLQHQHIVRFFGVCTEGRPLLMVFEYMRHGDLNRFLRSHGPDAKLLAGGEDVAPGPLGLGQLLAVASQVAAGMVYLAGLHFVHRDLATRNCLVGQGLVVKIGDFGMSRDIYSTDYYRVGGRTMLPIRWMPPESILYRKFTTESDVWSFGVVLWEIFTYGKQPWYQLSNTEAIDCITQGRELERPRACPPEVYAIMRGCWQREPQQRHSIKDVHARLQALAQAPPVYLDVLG

The compound `CCOc1nn(-c2ccccc2)c(NC(=O)N[C@@H]2CN(c3ccccc3OC(F)(F)F)C[C@H]2c2ccccc2)c1C` [Example 239, 1-(3-ethoxy-4-methyl-1-phenyl-1H-pyrazol-5-yl)-3-((3S,4R)-4-phenyl-1-(2-(trifluoromethoxy)phenyl)pyrrolidin-3-yl)urea] had an IC50 of 100 to 1000 nM. Then `COCCN1C[C@@H](NC(=O)Nc2c(Cl)c([C@H]3C[C@H](O)C3)nn2-c2ccccc2)[C@H](c2ccc(F)c(F)c2)C1` [Example 453, 1-(4-chloro-3-((1r,3S)-3-hydroxycyclobutyl)-1-phenyl-1H-pyrazol-5-yl)-3-(trans-4-(3,4-difluorophenyl)-1-(2-methoxyethyl)pyrrolidin-3-yl)urea], with under 100 nM; and `COCCN1C[C@@H](NC(=O)Nc2c(C)c(OC[C@H](O)C(F)(F)F)nn2-c2ccccc2)[C@H](c2cc(F)cc(F)c2)C1` [Example 369, 1-((3S,4R)-4-(3,5-difluorophenyl)-1-(2-methoxyethyl)pyrrolidin-3-yl)-3-(4-methyl-1-phenyl-3-((S)-3,3,3-trifluoro-2-hydroxypropoxy)-1H-pyrazol-5-yl)urea], with under 100 nM; and `COCCN1C[C@@H](NC(=O)Nc2cc(-c3ccc(Cl)cc3)nn2C)[C@H](c2ccc(F)c(F)c2)C1` [Example 119, 1-(3-(4-chlorophenyl)-1-methyl-1H-pyrazol-5-yl)-3-((3S,4R)-4-(3,4-difluorophenyl)-1-(2-methoxyethyl)pyrrolidin-3-yl)urea], with under 100 nM.

Turning to `COCCN1C[C@@H](NC(=O)Nc2c(Br)c(C(=O)O)nn2-c2ccccc2)[C@H](c2ccc(F)c(F)c2)C1` [Example 553, 4-bromo-5-(3-((3S,4R)-4-(3,4-difluorophenyl)-1-(2-methoxyethyl)pyrrolidin-3-yl)ureido)-1-phenyl-1H-pyrazole-3-carboxylic acid], the IC50 is 100 to 1000 nM. Consider `COCCN1C[C@@H](NC(=O)Nc2c(C)c(OC[C@@H](O)CO)nn2-c2ccccc2)[C@H](c2cc(F)c(F)c(F)c2)C1` [Example 560, 1-(3-((S)-2,3-dihydroxvpropoxy)-4-methyl-1-phenyl-1H-pyrazol-5-yl)-3-((3S,4R)-1-(2-methoxyethyl)-4-(3,4,5-trifluorophenyl)pyrrolidin-3-yl)urea], for which the IC50 is under 100 nM. Regarding `CCOc1nn(-c2ccccc2)c(NC(=O)N[C@@H]2CN(Cc3csnn3)C[C@H]2c2ccc(F)c(F)c2)c1C` [Example 249, 1-((3S,4R)-1-((1,2,3-thiadiazol-4-yl)methyl)-4-(3,4-difluorophenyl)pyrrolidin-3-yl)-3-(3-ethoxy-4-methyl-1-phenyl-1H-pyrazol-5-yl)urea], the IC50 is under 100 nM. The same measure for `COCCN1C[C@@H](NC(=O)Nc2c(Cl)c(C)nn2-c2ccccc2)[C@H](c2cncc(F)c2)C1` [Example 434]: under 100 nM. `COCCN1C[C@@H](NC(=O)Nc2cc(C(C)C)nn2-c2ccccc2)[C@H](c2ccc(F)cc2)C1` (relative stereo) [Example 41, trans-1-(4-(4-fluorophenyl)-1-(2-methoxyethyl)pyrrolidin-3-yl)-3-(3-isopropyl-1-phenyl-1H-pyrazol-5-yl)urea] came in with an IC50 of under 100 nM. Consider `COCCN1C[C@@H](NC(=O)Nc2c(C)c(-c3ccc(=O)n(C(C)C)c3)nn2-c2ccccc2)[C@H](c2ccc(F)c(F)c2)C1` [Example 535, 1-((3S,4R)-4-(3,4-difluorophenyl)-1-(2-methoxyethyl)pyrrolidin-3-yl)-3-(3-(1-isopropyl-6-oxo-1,6-dihydropyridin-3-yl)-4-methyl-1-phenyl-1H-pyrazol-5-yl)urea], for which the IC50 was under 100 nM. In the case of `COCCN1C[C@@H](NC(=O)Nc2c(C)c(-c3cnn(C)c3)nn2-c2ccccc2)[C@H](c2ccc(F)c(Cl)c2)C1` (relative stereo) [Example 293, 1-(trans-4-(3-chloro-4-fluorophenyl)-1-(2-methoxyethyl)pyrrolidin-3-yl)-3-(1′,4-dimethyl-1-phenyl-1H,1′H-[3,4′-bipyrazol]-5-yl)urea], the 50% inhibitory concentration (IC50) is under 100 nM.

`COCCN1C[C@@H](NC(=O)Nc2c(C)c([C@@H]3CCCN3)nn2-c2ccccc2)[C@H](c2cc(F)cc(F)c2)C1` [Example 586, 1-((3S,4R)-4-(3,5-difluorophenyl)-1-(2-methoxyethyl)pyrrolidin-3-yl)-3-(4-methyl-1-phenyl-3-((S)-pyrrolidin-2-yl)-1H-pyrazol-5-yl)urea dihydrochloride] yielded an IC50 of under 100 nM. The same measure for `COCCN1C[C@@H](NC(=O)Nc2c(C)c(-c3cnc(OC)nc3)nn2-c2ccccc2)[C@H](c2ccc(F)c(F)c2)C1` [Example 526, 1-((3S,4R)-4-(3,4-difluorophenyvl)-1-(2-methoxyethyl)pyrrolidin-3-yl)-3-(3-(2-methoxypyrimidin-5-yl)-4-methyl-1-phenyl-1H-pyrazol-5-yl)urea]: under 100 nM; for `COCCN1C[C@@H](NC(=O)Nc2cc(-c3cnn(C)c3)nn2C)[C@H](c2ccc(F)c(F)c2)C1` [Example 58, 1-((3S,4R)-4-(3,4-difluorophenyl)-1-(2-methoxyethyl)pyrrolidin-3-yl)-3-(1,1′-dimethyl-1H,1′H-3,4′-bipyrazol-5-yl)urea]: under 100 nM; for `COCCN1C[C@@H](NC(=O)Nc2c(C)c(-c3cnn(C)c3)nn2-c2ccccc2)[C@H](c2ccc(Cl)c(F)c2)C1` (relative stereo) [Example 294, 1-(trans-4-(4-chloro-3-fluorophenyl)-1-(2-methoxyethyl)pyrrolidin-3-yl)-3-(1′,4-dimethyl-1-phenyl-1H,1′H-[3,4′-bipyrazol]-5-yl)urea]: under 100 nM. The same measure for `COCCN1C[C@@H](NC(=O)Nc2c(Br)c(OC[C@@H](C)O)nn2-c2ccccc2)[C@H](c2cc(F)cc(F)c2)C1` [Example 376, 1-(4-bromo-3-((R)-2-hydroxypropoxy)-1-phenyl-1H-pyrazol-5-yl)-3-((3S,4R)-4-(3,5-difluorophenyl)-1-(2-methoxyethyl)pyrrolidin-3-yl)urea]: under 100 nM; for `COCCN1C[C@@H](NC(=O)Nc2c(Cl)c(OCC(F)(F)F)nn2-c2ccccc2)[C@H](c2ccc(F)c(F)c2)C1` [Example 479, 1-(4-chloro-1-phenyl-3-(2,2,2-trifluoroethoxy)-1H-pyrazol-5-yl)-3-((3 S,4R)-4-(3,4-difluorophenyl)-1-(2-methoxyethyl)pyrrolidin-3-yl)urea]: under 100 nM; for `COCCN1C[C@@H](NC(=O)Nc2c3c(nn2-c2ccccc2)CCC3)[C@H](c2ccc(F)c(F)c2)C1` (relative stereo) [Example 3, trans-1-(4-(3,4-difluorophenyl)-1-(2-methoxyethyl)pyrrolidin-3-yl)-3-(2-phenyl-2,4,5,6-tetrahydrocyclopenta[c]pyrazol-3-yl)urea]: under 100 nM. With `COCCN1C[C@@H](NC(=O)Nc2c(C)c(-c3cnn(C)c3)nn2-c2ccccc2)[C@H](c2ccc(Cl)c(F)c2)C1` [Example 466, 1-((3S,4R)-4-(4-chloro-3-fluorophenyl)-1-(2-methoxyethyl)pyrrolidin-3-yl)-3-(1′,4-dimethyl-1-phenyl-1H, 1′H-3,4′-bipyrazol-5-yl)urea], the IC50 is under 100 nM. The same measure for `COCCN1C[C@@H](NC(=O)Nc2c(C)c(OCC3(C)COC3)nn2-c2ccccc2)[C@H](c2ccc(F)c(F)c2)C1` [Example 75, 1-((3S,4R)-4-(3,4-difluorophenyl)-1-(2-methoxyethyl)pyrrolidin-3-yl)-3-(4-methyl-3-((3-methyloxetan-3-yl)methoxy)-1-phenyl-1H-pyrazol-5-yl)urea]: under 100 nM.
